Measurements as given in ChEMBL document CHEMBL5532639, “Heterocyclic pyrimidine derivatives as promising antibacterial agents” (Eur J Med Chem, 2023).
Converted amounts (≈) assume the structure as drawn.

How the values were obtained:
Staphylococcus aureus [1] = assay: Antibacterial activity against Staphylococcus aureus assessed as reduction in microbial growth; assay type: functional
Escherichia coli [2] = assay: Antibacterial activity against Escherichia coli assessed as reduction in bacterial growth; assay type: functional
Klebsiella sp. = assay: Antibacterial activity against Klebsiella sp. assessed as inhibition of bacterial growth; assay type: functional
Pseudomonas aeruginosa [3] = assay: Antibacterial activity against Pseudomonas aeruginosa assessed as reduction in bacterial growth; assay type: functional
Staphylococcus aureus [4] = assay: Antibacterial activity against Staphylococcus aureus assessed as bacterial growth inhibition by measuring zone of inhibition at 50 ug/ml by agar cup diffusion assay; assay type: functional; conditions: read-out: IZ
Salmonella typhimurium [5] = assay: Antibacterial activity against Salmonella typhimurium DT104 assessed as bacterial growth inhibition by measuring zone of inhibition at 50 ug/ml by agar cup diffusion assay; assay type: functional, Salmonella enterica subsp. enterica serovar Typhimurium; conditions: Salmonella enterica, read-out: IZ
Bacillus subtilis [6] = assay: Antimicrobial activity against Bacillus subtilis assessed as diameter of inhibition zone incubated for 24 hrs by well diffusion assay; assay type: functional
Pseudomonas aeruginosa [7] = assay: Antimicrobial activity against Pseudomonas aeruginosa assessed as diameter of inhibition zone incubated for 24 hrs by well diffusion assay; assay type: functional
Bacillus subtilis [8] = assay: Antibacterial activity against Bacillus subtilis assessed as bacterial growth inhibition by measuring zone of inhibition at 50 ug/ml by agar cup diffusion assay; assay type: functional; conditions: read-out: IZ
Salmonella typhimurium [9] = assay: Antimicrobial activity against Salmonella typhimurium DT104 assessed as diameter of inhibition zone incubated for 24 hrs by well diffusion assay; assay type: functional, Salmonella enterica subsp. enterica serovar Typhimurium
Escherichia coli [10] = assay: Antibacterial activity against Escherichia coli assessed as bacterial growth inhibition by measuring zone of inhibition at 50 ug/ml by agar cup diffusion assay; assay type: functional; conditions: read-out: IZ
Micrococcus luteus = assay: Antimicrobial activity against Micrococcus luteus assessed as diameter of inhibition zone incubated for 24 hrs by well diffusion assay; assay type: functional
Bacillus subtilis [11] = assay: Antibacterial activity against Bacillus subtilis assessed as reduction in bacterial cell viability by well plate method; assay type: functional
Escherichia coli [12] = assay: Antibacterial activity against Escherichia coli assessed as reduction in bacterial growth by broth microdilution method; assay type: functional
Escherichia coli [13] = assay: Antibacterial activity Escherichia coli assessed as reduction in bacterial growth; assay type: functional
Staphylococcus aureus [14] = assay: Antibacterial activity against Staphylococcus aureus assessed as bacterial growth inhibition; assay type: functional
[15] = test system: Staphylococcus epidermidis; assay: Antibacterial activity against Staphylococcus epidermidis assessed as reduction in microbial growth; assay type: functional
Klebsiella pneumoniae = assay: Antibacterial activity against Klebsiella pneumoniae assessed as reduction in bacterial growth by broth microdilution method; assay type: functional
Pseudomonas aeruginosa [16] = assay: Antibacterial activity against Pseudomonas aeruginosa assessed as reduction in microbial growth after 18 hrs by MTT based broth dilution method; assay type: functional
Pseudomonas aeruginosa [17] = assay: Antibacterial activity against Pseudomonas aeruginosa assessed as reduction in microbial growth by broth microdilution method; assay type: functional
Bacillus subtilis [18] = assay: Antibacterial activity against Bacillus subtilis 6633 assessed as reduction in bacterial growth; assay type: functional
Staphylococcus aureus [19] = assay: Antibacterial activity against Staphylococcus aureus assessed as reduction in microbial growth by CLSI based broth microdilution method; assay type: functional
Salmonella typhimurium [20] = assay: Antibacterial activity against Salmonella typhimurium DT104 assessed as reduction in bacterial growth; assay type: functional, Salmonella enterica subsp. enterica serovar Typhimurium; conditions: Salmonella enterica
Escherichia coli [21] = assay: Antibacterial activity against Escherichia coli assessed as bacterial growth inhibition incubated for 18 hrs by CLSI protocol based Mueller-Hinton broth assay; assay type: functional
Streptococcus pneumoniae [22] = assay: Antibacterial activity against Streptococcus pneumoniae; assay type: functional
Streptococcus pneumoniae [23] = assay: Antimicrobial activity against Streptococcus […] assessed as bacterial growth inhibition by measuring zone of inhibition at 50 ug/ml by agar cup diffusion assay; assay type: functional; conditions: read-out: IZ
Staphylococcus aureus [24] = assay: Antibacterial activity against Staphylococcus aureus ATCC 3750 assessed as reduction in bacterial growth; assay type: functional
Streptococcus pyogenes = assay: Antibacterial activity against Streptococcus pyogenes assessed as reduction in microbial growth by CLSI based broth microdilution method; assay type: functional
Bacillus subtilis [25] = assay: Antimicrobial activity against Bacillus subtilis RCMB 010069 assessed as bacterial growth inhibition by measuring zone of inhibition at 50 ug/ml by agar cup diffusion assay; assay type: functional; conditions: read-out: IZ
Pseudomonas aeruginosa [26] = assay: Antibacterial activity against Pseudomonas aeruginosa assessed as reduction in bacterial growth by broth microdilution method; assay type: functional
Staphylococcus aureus [27] = assay: Antibacterial activity against Staphylococcus aureus; assay type: functional
Escherichia coli [28] = assay: Antibacterial activity against Escherichia coli ATCC 25922 assessed as bacterial growth inhibition; assay type: functional
Bacillus subtilis [29] = assay: Antibacterial activity against Bacillus subtilis; assay type: functional
Pneumocystis carinii = assay: Antifungal activity against Pneumocystis carinii assessed as reduction in fungal growth; assay type: functional, organism-based
Toxoplasma gondii = assay: Antiparasitic activity against Toxoplasma gondii assessed as parasitic growth inhibition; assay type: functional, organism-based
Pseudomonas aeruginosa [30] = assay: Antibacterial activity against Pseudomonas aeruginosa; assay type: functional
Escherichia coli [31] = assay: Antibacterial activity against Escherichia coli; assay type: functional

With `COc1ccc2cc(-c3nc4sc5c(c4c(=O)n3N)CCCC5)ccc2c1` the MIC (Staphylococcus aureus [1]) was 12.5 mg/L, the MIC (Escherichia coli [2]) was 12.5 mg/L (≈ 33.1 µM) and the MIC (Klebsiella sp.) was 12.5 mg/L (≈ 33.1 µM). It also gave an MIC (Pseudomonas aeruginosa [3]) of 12.5 mg/L (≈ 33.1 µM).

`CN(C)[C@@H]1C(O)=C(C(N)=O)C(=O)[C@@]2(O)C(O)=C3C(=O)c4c(O)cccc4[C@@](C)(O)[C@H]3C[C@@H]12` [TETRACYCLINE] was tested, and the zone of inhibition at 50 µg/mL (Staphylococcus aureus [4]) was 19 mm, the zone of inhibition at 50 µg/mL (Salmonella typhimurium [5]) was 24 mm and the “inhibition zone (IZ)” value (Bacillus subtilis [6]) was 14 mm. For the same compound, the “inhibition zone (IZ)” value (Pseudomonas aeruginosa [7]) was 18 mm, the zone of inhibition at 50 µg/mL (Bacillus subtilis [8]) was 21 mm and the “inhibition zone (IZ)” value (Salmonella typhimurium [9]) was 8 mm. The zone of inhibition at 50 µg/mL (Escherichia coli [10]) was 15 mm and the “inhibition zone (IZ)” value (Micrococcus luteus) was 16 mm.

Work on `COc1ccc(C2C3=C(CCCC3=O)Oc3nc(-c4cc5ccccc5oc4=O)[nH]c(=O)c32)cc1OC` (stereo unspecified) yielded an MIC (Bacillus subtilis [11]) of 50 mg/L (≈ 100 µM), an MIC (Escherichia coli [12]) of 12.5 mg/L (≈ 25.1 µM) and an MIC (Escherichia coli [13]) of 50 mg/L (≈ 100 µM). It also gave an MIC (Staphylococcus aureus [14]) of 50 mg/L (≈ 100 µM), an MIC [15] of 100 mg/L and an MIC (Klebsiella pneumoniae) of 50 mg/L (≈ 100 µM). For the same compound, the MIC (Pseudomonas aeruginosa [16]) was 50 mg/L and the MIC (Pseudomonas aeruginosa [17]) was 50 mg/L.

Compound `O=C1CCCC2=C1C(c1ccc(Cl)cc1)c1c(nc(-c3cc4ccccc4oc3=O)[nH]c1=O)O2` (stereo unspecified) has an MIC (Bacillus subtilis [11]) of 25 mg/L (≈ 52.9 µM), an MIC (Escherichia coli [12]) of 50 mg/L (≈ 106 µM) and an MIC (Escherichia coli [13]) of 100 mg/L (≈ 211 µM). It also gave an MIC (Staphylococcus aureus [14]) of 100 mg/L (≈ 211 µM), an MIC [15] of 50 mg/L and an MIC (Klebsiella pneumoniae) of 100 mg/L (≈ 211 µM). It also gave an MIC (Pseudomonas aeruginosa [16]) of 100 mg/L and an MIC (Pseudomonas aeruginosa [17]) of 100 mg/L.

Work on `CC1(C)S[C@@H]2[C@H](NC(=O)[C@H](N)c3ccccc3)C(=O)N2[C@H]1C(=O)O` [AMPICILLIN] yielded an MIC (Bacillus subtilis [18]) of 4 mg/L (≈ 11.4 µM), an MIC (Staphylococcus aureus [19]) of 250 mg/L and an MIC (Salmonella typhimurium [20]) of 49 mg/L (≈ 140 µM). It also gave an MIC (Escherichia coli [21]) of 100 mg/L (≈ 286 µM), an MIC (Streptococcus pneumoniae [22]) of 0.98 mg/L (≈ 2.8 µM) and a zone of inhibition at 50 µg/mL (Streptococcus pneumoniae [23]) of 23.8 mm. It also gave an MIC (Staphylococcus aureus [24]) of 50 mg/L (≈ 143 µM), an MIC (Streptococcus pyogenes) of 100 mg/L and a zone of inhibition at 50 µg/mL (Bacillus subtilis [25]) of 32.4 mm. The MIC (Pseudomonas aeruginosa [26]) was 100 mg/L (≈ 286 µM), the MIC (Staphylococcus aureus [27]) was 0.49 mg/L (≈ 1.4 µM) and the MIC (Escherichia coli [28]) was 4 mg/L (≈ 11.4 µM). For the same compound, the MIC (Bacillus subtilis [29]) was 0.49 mg/L (≈ 1.4 µM).

For `NC(=O)N/N=C/c1ccc([N+](=O)[O-])o1` [NITROFURAZONE], the MIC (Staphylococcus aureus [1]) was 12.5 mg/L, the MIC (Escherichia coli [2]) was 12.5 mg/L (≈ 63.1 µM) and the MIC (Klebsiella sp.) was 12.5 mg/L (≈ 63.1 µM). For the same compound, the MIC (Pseudomonas aeruginosa [3]) was 6 mg/L (≈ 30.3 µM).

For `COc1ccc(-c2cc(C#Cc3ccc(C(=O)O)cc3)cc(Cc3cnc(N)nc3N)c2)cc1OC`, the IC50 (Pneumocystis carinii) was 1.2 µM and the IC50 (Toxoplasma gondii) was 0.42 µM.

For `CC[C@H]1OC(=O)[C@H](C)[C@@H](O[C@H]2C[C@@](C)(OC)[C@@H](O)[C@H](C)O2)[C@H](C)[C@@H](O[C@@H]2O[C@H](C)C[C@H](N(C)C)[C@H]2O)[C@](C)(O)C[C@@H](C)C(=O)[C@H](C)[C@@H](O)[C@]1(C)O` [ERYTHROMYCIN], the “inhibition zone (IZ)” value (Bacillus subtilis [6]) was 12 mm, the “inhibition zone (IZ)” value (Pseudomonas aeruginosa [7]) was 10 mm and the “inhibition zone (IZ)” value (Salmonella typhimurium [9]) was 7 mm. The “inhibition zone (IZ)” value (Micrococcus luteus) was 10 mm.

`O=c1[nH]c(=S)[nH]c2nc(-c3ccc(Cl)cc3)cc(-c3ccccc3)c12` showed an MIC (Pseudomonas aeruginosa [30]) of 3.9 mg/L (≈ 10.7 µM), an MIC (Streptococcus pneumoniae [22]) of 0.98 mg/L (≈ 2.68 µM) and an MIC (Escherichia coli [31]) of 0.98 mg/L (≈ 2.68 µM). The MIC (Staphylococcus aureus [27]) was 3.9 mg/L (≈ 10.7 µM) and the MIC (Bacillus subtilis [29]) was 1.95 mg/L (≈ 5.33 µM).
